For assay [1], the system named is Pseudomonas aeruginosa. The experiment in a line: Antibacterial activity against Pseudomonas aeruginosa H103 assessed as inhibition of bacterial growth. The assay is classed as functional.
The nature of assay [2]: Inhibition of bacterial MraY. Further details: species or system Bacteria.
In assay [3] the test system is Escherichia coli. The experiment in a line: Antibacterial activity against Escherichia coli assessed as inhibition of bacterial growth. The assay is classed as functional.
Assay [4] relates to Pseudomonas aeruginosa. As to the kind of experiment: Antibacterial activity against Pseudomonas aeruginosa H103 assessed as reduction in bacterial growth. The assay is classed as functional.
Assay [5] addresses T1, Phospho-N-acetylmuramoyl-pentapeptide-transferase (Escherichia coli, UniProt E2QF15).
T1 sequence (E2QF15 whole entry): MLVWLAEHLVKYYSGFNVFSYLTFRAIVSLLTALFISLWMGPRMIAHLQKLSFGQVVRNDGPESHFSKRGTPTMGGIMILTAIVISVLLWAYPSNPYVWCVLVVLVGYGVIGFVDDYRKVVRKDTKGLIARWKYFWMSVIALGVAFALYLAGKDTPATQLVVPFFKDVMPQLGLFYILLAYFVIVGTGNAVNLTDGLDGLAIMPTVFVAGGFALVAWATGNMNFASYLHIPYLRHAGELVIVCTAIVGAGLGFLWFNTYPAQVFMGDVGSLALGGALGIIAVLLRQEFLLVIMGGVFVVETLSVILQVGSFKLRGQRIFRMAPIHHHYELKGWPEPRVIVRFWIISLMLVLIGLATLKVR
As to the kind of experiment: Inhibition of MraY in Escherichia coli.

The test system of assay [6] is Staphylococcus aureus. As to the kind of experiment: Antibacterial activity against Staphylococcus aureus ATCC 29213 assessed as bacterial growth inhibition. The assay is classed as functional.

Structures are written as SMILES. Converted amounts (≈) assume the structure as drawn. Residues, ends and D or L forms follow the SMILES beside them.

What is called MIC is the lowest concentration that inhibits growth of the organism. The IC50 is the concentration that gives 50% inhibition. The low end stands for inhibition by little substance, the high end for a need for much substance. For `CC[C@H](C)[C@H](NC(=O)[C@H](Cc1c[nH]c2ccccc12)NC(=O)[C@@H](NC(=O)[C@@H](NC(=O)[C@H](CCCNC(=N)N)NC(=O)[C@H](Cc1c[nH]c2ccccc12)NC(=O)[C@H](Cc1c[nH]c2ccccc12)NC(=O)[C@@H](N)CCCNC(=N)N)[C@@H](C)CC)C(C)C)C(=O)N[C@@H](CCCCN)C(=O)N[C@@H](Cc1c[nH]c2ccccc12)C(=O)N[C@@H](Cc1c[nH]c2ccccc12)C(=O)N[C@@H](CCCNC(=N)N)C(=O)O` (H-RWWRIVWIKWWR-OH), the MIC in assay [1] amounted to 31 µg/mL (≈ 16.6 µM); in assay [3], 4 µg/mL (≈ 2.14 µM); in assay [4], 31 µg/mL (≈ 16.6 µM). Also, in assay [2], the IC50 is 40 µM.

Consider `CC[C@@H](C)[C@H](NC(=O)[C@H](CC(C)C)NC(=O)[C@H](CC(C)C)NC(=O)[C@H](CO)NC(=O)[C@@H]1CCCN1C(=O)[C@H](CC(C)C)NC(=O)[C@H](CC(C)C)NC(=O)[C@H](CC(C)C)NC(=O)[C@H](CO)NC(=O)[C@H](CC(C)C)NC(=O)[C@H](CC(C)C)NC(=O)[C@H](CC(C)C)NC(=O)[C@H](CC(C)C)NC(=O)[C@H](Cc1ccccc1)NC(=O)[C@H](C)NC(=O)[C@H](CC(C)C)NC(=O)[C@@H](NC(=O)[C@H](CC(=O)O)NC(=O)[C@H](Cc1c[nH]c2ccccc12)NC(=O)[C@H](CC(C)C)NC(=O)[C@@H](NC(=O)[C@H](Cc1c[nH]c2ccccc12)NC(=O)[C@H](CCCNC(=N)N)NC(=O)[C@@H](NC(=O)[C@@H](N)CCSC)C(C)C)[C@@H](C)O)[C@@H](C)O)C(=O)N[C@@H](CCSC)C(=O)N[C@@H](Cc1ccccc1)C(=O)N[C@H](C(=O)N1CCC[C@H]1C(=O)N[C@@H](CO)C(=O)N[C@H](C(=O)N[C@@H](Cc1ccccc1)C(=O)N[C@@H](CCCCN)C(=O)N[C@@H](CCCNC(=N)N)C(=O)N1CCC[C@H]1C(=O)N[C@H](C(=O)N[C@@H](CO)C(=O)O)C(C)C)[C@@H](C)O)[C@@H](C)CC`, for which the IC50 in assay [5] was 0.8 µM.

On to `CC(C)C[C@H](NC(=O)CNC(=O)[C@H](Cc1c[nH]c2ccccc12)NC(=O)[C@@H](N)CCCNC(=N)N)C(=O)N[C@@H](Cc1c[nH]c2ccccc12)C(=O)O` (H-RWGLW-OH), for which, in assay [2], the IC50 was 590 µM. In addition, in assay [6], the MIC was 30 µg/mL (≈ 41.9 µM).

Values taken from ChEMBL document CHEMBL5252520, “Inhibition of phospho-MurNAc-pentapeptide translocase (MraY) by nucleoside natural product antibiotics, bacteriophage ϕX174 lysis protein E, and cationic antibacterial peptides” (Bioorg Med Chem, 2016).
